In patent US9878007B2, “Syndecan peptides and polypeptides as inhibitors of vascular endothelial growth factor receptor-2 (VEGFR2) and very late antigen-4 (VLA-4)” (Wisconsin Alumni Research Foundation, priority 2015, dated 2018):

What was measured:
[1] = test system: CAG myeloma cells; experiment: Transwell migration assay of CAG myeloma cells towards FN; format: cell-based, human; settings: 16 hrs
Procedure: The bottom chambers of Transwell filter chambers (8 μm pores; Corning) were coated with 40 μg/ml of FN. Cells (5×10^5 in 0.2 ml plating medium) were placed in the upper chamber and incubated for 16 hr at 37° C. in the CO2 incubator. After incubation, cells in the upper chamber were removed and cells on the bottom side of the filter were fixed in 4% paraformaldehyde (PFA) and stained with 0.1% Crystal Violet before imaging. Cells from at least five random fields were counted.

[2] = target: T1, VEGFR2 and VLA-4 (Homo sapiens, UniProt P05556+P13612+P35968); experiment: Activation / inhibition of Sdc1-mediated coupling of VEGFR2 to VLA-4 (FIGS. 6A-H); format: cell-based
T1 construct: the α4-integrin (VLA-4), which is expressed on myeloma cells; endogenous in cells; host or cells: CAG human myeloma cells (HPSE^low / HPSE^high) plated on fibronectin
T1 sequence (P35968 20-1356): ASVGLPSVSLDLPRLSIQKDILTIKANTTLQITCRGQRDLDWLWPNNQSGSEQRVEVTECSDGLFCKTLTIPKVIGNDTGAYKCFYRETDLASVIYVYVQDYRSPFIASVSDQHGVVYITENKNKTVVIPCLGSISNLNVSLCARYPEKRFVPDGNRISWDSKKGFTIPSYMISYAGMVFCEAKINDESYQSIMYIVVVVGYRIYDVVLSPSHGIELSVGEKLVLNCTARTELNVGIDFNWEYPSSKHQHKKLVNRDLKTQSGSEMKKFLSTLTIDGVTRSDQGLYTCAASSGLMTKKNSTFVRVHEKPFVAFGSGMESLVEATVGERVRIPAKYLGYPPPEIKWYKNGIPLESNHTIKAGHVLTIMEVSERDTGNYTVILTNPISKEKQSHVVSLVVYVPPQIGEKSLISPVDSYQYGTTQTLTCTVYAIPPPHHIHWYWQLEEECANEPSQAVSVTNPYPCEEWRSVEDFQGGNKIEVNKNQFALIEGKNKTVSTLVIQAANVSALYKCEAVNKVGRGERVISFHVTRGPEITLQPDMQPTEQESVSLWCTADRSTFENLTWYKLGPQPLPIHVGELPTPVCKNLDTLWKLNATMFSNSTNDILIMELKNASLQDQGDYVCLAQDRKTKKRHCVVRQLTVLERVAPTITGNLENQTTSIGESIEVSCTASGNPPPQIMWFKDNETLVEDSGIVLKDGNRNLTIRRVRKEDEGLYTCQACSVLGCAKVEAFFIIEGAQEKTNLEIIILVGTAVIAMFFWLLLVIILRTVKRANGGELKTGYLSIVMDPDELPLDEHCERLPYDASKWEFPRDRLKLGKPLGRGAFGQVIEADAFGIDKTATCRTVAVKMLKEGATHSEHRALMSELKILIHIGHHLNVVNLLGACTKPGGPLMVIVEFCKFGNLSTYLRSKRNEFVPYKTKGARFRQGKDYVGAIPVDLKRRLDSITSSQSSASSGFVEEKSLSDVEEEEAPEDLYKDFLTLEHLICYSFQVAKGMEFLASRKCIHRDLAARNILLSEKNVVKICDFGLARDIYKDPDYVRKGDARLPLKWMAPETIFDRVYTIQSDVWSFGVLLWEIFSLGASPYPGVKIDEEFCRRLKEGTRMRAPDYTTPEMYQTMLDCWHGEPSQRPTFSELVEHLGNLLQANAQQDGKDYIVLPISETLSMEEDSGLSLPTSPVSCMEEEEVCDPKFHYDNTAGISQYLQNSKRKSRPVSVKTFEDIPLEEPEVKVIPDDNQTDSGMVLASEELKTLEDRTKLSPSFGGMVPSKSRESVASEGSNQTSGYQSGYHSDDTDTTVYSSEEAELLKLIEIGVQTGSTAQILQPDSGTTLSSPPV
T1 sequence (P13612 34-1032): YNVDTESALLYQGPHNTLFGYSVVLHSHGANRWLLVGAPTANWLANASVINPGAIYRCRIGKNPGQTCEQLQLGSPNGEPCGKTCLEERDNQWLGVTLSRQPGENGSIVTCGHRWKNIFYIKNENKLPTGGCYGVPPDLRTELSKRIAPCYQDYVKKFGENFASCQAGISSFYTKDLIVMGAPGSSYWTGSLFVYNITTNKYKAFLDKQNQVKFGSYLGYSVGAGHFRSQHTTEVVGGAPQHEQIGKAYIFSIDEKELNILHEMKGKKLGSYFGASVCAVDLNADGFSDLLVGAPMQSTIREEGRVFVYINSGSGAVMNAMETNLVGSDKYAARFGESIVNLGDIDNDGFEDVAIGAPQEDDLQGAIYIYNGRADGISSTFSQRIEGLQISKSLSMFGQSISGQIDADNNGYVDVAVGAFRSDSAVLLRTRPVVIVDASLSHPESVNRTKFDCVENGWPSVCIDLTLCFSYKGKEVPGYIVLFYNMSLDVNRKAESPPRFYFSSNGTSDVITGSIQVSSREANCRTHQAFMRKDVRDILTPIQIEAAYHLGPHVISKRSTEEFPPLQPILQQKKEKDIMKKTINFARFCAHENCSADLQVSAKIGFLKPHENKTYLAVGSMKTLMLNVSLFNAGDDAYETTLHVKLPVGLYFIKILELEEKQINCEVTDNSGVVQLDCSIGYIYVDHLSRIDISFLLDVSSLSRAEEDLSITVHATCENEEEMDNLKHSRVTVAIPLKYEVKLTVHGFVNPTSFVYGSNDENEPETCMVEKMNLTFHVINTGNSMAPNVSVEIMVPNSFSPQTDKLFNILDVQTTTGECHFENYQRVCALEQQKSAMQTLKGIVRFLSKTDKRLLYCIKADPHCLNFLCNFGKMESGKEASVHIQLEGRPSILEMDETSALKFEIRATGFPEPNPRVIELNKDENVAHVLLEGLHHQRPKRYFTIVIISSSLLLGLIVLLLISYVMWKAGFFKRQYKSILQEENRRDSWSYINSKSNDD
T1 sequence (P05556 21-798): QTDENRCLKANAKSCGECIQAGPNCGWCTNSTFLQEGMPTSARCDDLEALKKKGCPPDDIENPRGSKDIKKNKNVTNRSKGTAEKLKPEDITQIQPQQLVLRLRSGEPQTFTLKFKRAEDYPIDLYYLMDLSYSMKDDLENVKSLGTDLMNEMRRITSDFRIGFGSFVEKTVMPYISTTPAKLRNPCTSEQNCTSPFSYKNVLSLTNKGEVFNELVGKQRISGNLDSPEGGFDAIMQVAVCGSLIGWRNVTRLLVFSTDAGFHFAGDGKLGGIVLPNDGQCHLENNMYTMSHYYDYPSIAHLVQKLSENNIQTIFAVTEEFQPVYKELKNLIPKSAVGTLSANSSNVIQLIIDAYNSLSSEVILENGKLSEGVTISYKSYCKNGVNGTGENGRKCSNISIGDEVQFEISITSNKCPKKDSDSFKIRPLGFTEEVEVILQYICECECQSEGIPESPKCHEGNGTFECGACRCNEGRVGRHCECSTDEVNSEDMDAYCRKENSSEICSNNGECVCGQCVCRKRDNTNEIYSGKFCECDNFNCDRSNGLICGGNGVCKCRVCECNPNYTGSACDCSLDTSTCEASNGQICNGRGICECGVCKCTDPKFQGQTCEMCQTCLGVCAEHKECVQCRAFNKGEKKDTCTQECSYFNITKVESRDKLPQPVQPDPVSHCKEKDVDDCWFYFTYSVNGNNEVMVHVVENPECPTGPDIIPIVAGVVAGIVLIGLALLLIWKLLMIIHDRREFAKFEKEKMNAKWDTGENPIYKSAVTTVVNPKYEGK
Procedure: (§1) FIGS. 6A-G. Peptides derived from the active site in Sdc1 activate or inhibit adhesion and invasion. (FIG. 6A) Transwell migration assays towards FN (for 16 hrs) were performed for HPSE low or high cells in the presence of 0, 0.3, 3, and 30 μM of S1ED^210-240. Cells migrating to the bottom side of the filter were counted from five random images for each treatment. (FIG. 6B) The sequence of S1ED210-240 is shown (SEQ ID NO: 3), as well as […] truncation mutants of the peptide (SEQ ID NOs: 5, 2, 4 and 7). Amino acids shown in red appear necessary for the spreading and invasive activity. (FIG. 6C) Images of HPSE^low and HPSE^high cells plated on FN for 2 hr. (FIG. 6D) HPSE^low cells were treated with 0, 0.3, 3, 10 and 30 μM of S1ED^210-236, S1ED^210-233, or S1ED^214-240, plated on FN for 2 hr, fixed and stained with fluorescent phalloidin. Cells from five random images were quantified for cell attachment and cell spreading. (FIG. 6E) HPSE^high cells were treated with 0, 3, 10, and 30 μM of S1ED^210-236, S1ED^210-233, and S1ED^214-240, plated on FN for 2 hr, then fixed, imaged and quantified as in FIG. 6D. (FIG. 6F) Transwell migration assays towards FN (for 16 hr) were performed for HPSE^low or HPSE^high cells in the presence of 30 μM of S1ED^210-236, S1ED^210-233, S1ED^214-240 and Vandetanib. (FIG. 6G) HPSE^low cell lysates were incubated overnight with glutathione beads coated with GST or GST-S1ED in the absence or presence of 30 μM of S1ED^210-236, S1ED^210-233, and S1ED^214-240. Capture of VLA-4 or VEGFR2 was detected by immunoblotting. Sequences in FIG. 6B are 210-240 (SEQ ID NO: 3), 210-236 (SEQ ID NO: 2), 210-233 (SEQ ID NO: 4), 214-240 (SEQ ID NO: 5) and 214-236 (SEQ ID NO: 7).
It is envisioned that a peptide that contains binding sites for both VEGFR2 and VLA-4, such as 210-236, has the capacity to bridge both receptors and link them together. This activates signaling that the cells use for migration and invasion. […]

[3] = test system: CAG myeloma cells; experiment: Cell spreading / attachment assay of CAG myeloma cells on FN or VCAM-1; format: cell-based, human
Procedure: Nitrocellulose-coated slides were coated for 2 hr at 37° C. with 40 μg/ml FN (kindly provided by Dr. Donna Peters, University of Wisconsin-Madison) or 5 μg/ml recombinant VCAM-1/Fc chimera (R&D Systems) in calcium and magnesium-free PBS (CMF-PBS; 135 mM NaCl, 2.7 mM KCl, 10.2 mM Na2HPO4-7H20 and 1.75 mM KH2PO4, pH7.4). Slides were blocked for 1 hr at 37° C. with RPMI 1640 containing 1% heat-denatured BSA (plating medium). Cells in plating medium were allowed to attach and spread for 2.5 hr at 37° C. Slides were fixed in 4% EM grade paraformaldehyde (Electron Microscopy Sciences) in CMF-PBS and labeled for 30 min in 0.13 μM rhodamine phalloidin (Invitrogen) in CMF-PBS. Coverslips were mounted in non-fluorescing mounting medium (Immumount; Thermo Shandon) and allowed to dry. All images were acquired with a Nikon Microphot FX microscope using a 20× objective (Nikon; Ex 541-551, DM 580, Barrier 590), Photometric CoolSnap ES camera, and version 7.7.3.0 Metamorph© Imaging software (Molecular Devices). All images represent results from triplicate wells and at least three independent experiments.

[4] = test system: human SKBr3 mammary carcinoma cells; experiment: Breast cancer xenograft treated with systemic peptide; format: in vivo; settings: SKBr3 xenografts in nude mice; 1.09 mg/kg/day by Alzet pump for 3 weeks
Procedure: FIG. 9. Treatment of breast cancer xenograft with systemic S1ED^210-240. 4×10^6 human SKBr3 mammary carcinoma cells were injected in a 1:1 mix with matrigel into the posterior flanks of immunodeficient nude (nu/nu) mice and allowed to establish for one week as palpable tumors. Alzet pumps were then implanted subcutaneously on the anterior dorsal backs of the animals, systemically delivering either phosphate buffered-saline alone (PBS) or S1ED 210-240 peptide in PBS for 3 weeks of treatment. Peptide was delivered at 1.09 mg/kg/day, a concentration estimated to achieve concentrations sufficient to block the VLA-4/VEGFR2 mechanism. Tumor sizes were measured with calipers and converted to tumor volumes using the equation […]. The data are shown as the mean of 12 tumors+/−S.E.M.

[5] = target: T2, VLA-4 and VEGFR2 (Homo sapiens, UniProt P05556+P13612+P35968); experiment: Immunostaining for co-localization of GST-S1ED with VLA-4 or VEGFR2; format: cell-based; settings: HPSE^low cells on FN, 4 μM GST-S1ED, 2.5 hrs
T2 construct: the α4-integrin (VLA-4), which is expressed on myeloma cells; endogenous in cells; host or cells: CAG human myeloma cells (HPSE^low / HPSE^high) plated on fibronectin
T2 sequence (P35968 20-1356): as the sequence (P35968 20-1356) above
T2 sequence (P13612 34-1032): as the sequence (P13612 34-1032) above
T2 sequence (P05556 21-798): as the sequence (P05556 21-798) above
Procedure: (§2) FIGS. 5A-C. Recombinant Sdc1 ectodomain (GST-S1ED) causes capture of VEGFR2 by VLA-4. (FIG. 5A) HPSE^high cells were plated on FN for 2.5 hrs and double stained for VLA-4 and VEGFR2. (FIG. 5B) HPSE^low cells were plated on FN in the presence of 4 μM GST-S1ED. After 2.5 hrs, cells were double-stained for GST to detect the GST-S1ED and VLA-4 or VEGFR2. (FIG. 5C) HPSE^low cells were plated on FN-pre-coated dishes for 2.5 hr in the absence or presence of GST-S1ED and whole cell lysates were prepared for immunoprecipitation with anti-VEGFR2 and VLA-4 antibodies. The associated VLA-4 was detected by immunoblotting with a VLA-4 antibody.
Fixed cells on FN-coated slides were quenched with 0.1 M glycine, permeabilized with CMF-PBS containing 0.1% Triton X-100 for 3 min at room temperature (RT) and blocked with 5% BSA in CMF-PBS. […]

[6] = target: T3, VEGFR2 (Homo sapiens, UniProt P35968); experiment: GST pull down assay: capture of VEGFR2 by GST-S1ED; format: binding
T3 construct: endogenous in cells; host or cells: CAG human myeloma cells (HPSE^low = empty vector; HPSE^high = human HPSE cDNA)
T3 sequence (P35968 20-1356): as the sequence (P35968 20-1356) above
Procedure: as §1
(§3) CAG cells were washed with CMF-PBS and then lysed for 20 min on ice in lysis buffer. Cell debris was removed by centrifugation at 13000 rpm for 20 min at 4° C. Whole cell lysates were then incubated at 4° C. overnight with either 3 μM GST or 3 μM GST-S1ED in the absence or presence of 1 μM, 3 μM, and 10 μM S1ED^210-240 peptide. GST or GST-S1ED was captured by addition of glutathione Sepharose and the beads were washed with ice-cold lysis buffer and CMF-PBS, prior to addition of SDS-PAGE sample buffer and analyszed by electrophoresis and western blotting as described previously.

[7] = target: T4, VLA-4 (Homo sapiens, UniProt P05556+P13612); experiment: GST pull down assay: capture of VLA-4 by GST-S1ED; format: binding
T4 construct: the α4-integrin (VLA-4), which is expressed on myeloma cells; endogenous in cells; host or cells: CAG human myeloma cells (HPSE^low), whole-cell lysate
T4 sequence (P13612 34-1032): as the sequence (P13612 34-1032) above
T4 sequence (P05556 21-798): as the sequence (P05556 21-798) above
Procedure: as §1, §3

[8] = target: T1, VEGFR2 and VLA-4; experiment: Immunoprecipitation of VEGFR2 and detection of associated VLA-4; format: cell-based; settings: HPSE^low cells on FN, 2.5 hr, in the presence of GST-S1ED
Procedure: as §2
HPSE^low cells were plated on FN in the presence of 4 μg/ml GST or GST-S1ED for 2.5 hr. The cells were washed with CMF-PBS, then lysed for 20 min on ice in lysis buffer (0.5% Triton X-100 in 50 mM Hepes, 50 mM NaCl and 10 mM EDTA (pH 7.4) containing a 1:1000 dilution of protease inhibitor mixture set III (Calbiochem). Cell lysates were precleared at 13000 rpm for 20 min at 4° C. using 50 μg/ml isotype-matched nonspecific IgG and 30 μl of protein G agarose (GE Healthcare), then incubated at 4° C. overnight with either 10 μg/ml anti-α4-integrin (P1H4) or VEGFR2 (mAb 55B11) or nonspecific mouse IgG. Immunoprecipitated α4-integrin or VEGFR2 were dissolved in SDS sample buffer), electrophoresed and analyzed on western blots as described previously. […]

Substance	FN-induced migration of HPSE^high cells ([1]; 30 μM peptide)	migration of HPSE^low cells ([1]; 30 μM peptide)	migration of HPSE^low cells ([1]; low concentrations, 0.3-3 μM peptide)	concentration at which the peptide inhibits the mechanism [2]	induction of HPSE^low cell spreading by S1ED peptides ([3]; on VCAM-1, 0.3 μM peptide)	size of the tumors [4]	co-localization with VEGFR2 or VLA-4 [5]	capture of VEGFR2 by GST-S1ED ([6]; CAG myeloma cell lysates)	capture of VEGFR2 by GST-S1ED ([6]; HMEC-1 cell lysate)	capture of VLA-4 by GST-S1ED ([7]; CAG myeloma cell lysates)	capture of VLA-4 by GST-S1ED ([7]; HMEC-1 cell lysate)	co-immunoprecipitation of VLA-4 with VEGFR2 [8]	rescue of HPSE^high polarized phenotype blocked by MMP9 blocking antibody ([3]; on FN, GST-S1ED added)	induction of HPSE^low cell spreading by GST-S1ED constructs ([3]; on VCAM-1, 4 μM GST-S1ED constructs)
S1ED^210-240: peptide corresponding to amino acids 210-240 of syndecan-1 ectodomain (SEQ ID NO: 3) (DFTFETSGENTAVVAVEPDRRNQSPVDQGAT)	decreased	failed to induce	induced migration of HPSE^low cells at low concentrations	30 µM	sufficient to induce HPSE^low cell spreading on VCAM-1	effectively reduced the size of the tumors	–	–	–	–	–	–	–	–
GST-S1ED: recombinant GST-tagged Sdc1 ectodomain expressed in bacteria and devoid of HS	–	–	–	–	–	–	co-localized with VEGFR2 or VLA-4 at the protrusive lamellipodium	captures both VLA-4 and VEGFR2	captures VLA-4 and VEGFR2 from HMEC-1 cells lysates	captures both VLA-4 and VEGFR2	captures VLA-4 and VEGFR2 from HMEC-1 cells lysates	VLA-4 is co-immunoprecipitated with VEGFR2	polarized phenotype is rescued	induced cell spreading
